Source: patent US20240279176A1, “SUBSTITUTED TRICYCLIC HETEROCYCLIC COMPOUNDS AS METALLO-BETA-LACTAMASE INHIBITORS” (priority 2021, published 2024)
Like-named read-outs stand apart in the source and are kept apart here.

How the values were obtained:
[1] = system: Klebsiella pneumoniae ATCC BAA-2146; experiment: Checkerboard synergy assay in combination with Imipenem; assay type: cell-based; settings: K. pneumoniae ATCC BAA-2146; for Fold reduction in Imipenem MIC in the presence of compounds (μg/mL) 4: compound at 4 μg/mL; for Fold reduction in Imipenem MIC in the presence of compounds (μg/mL) 8: compound at 8 μg/mL; for Fold reduction in Imipenem MIC in the presence of compounds (μg/mL) 16: compound at 16 μg/mL; for Fold reduction in Imipenem MIC in the presence of compounds (μg/mL) 32: compound at 32 μg/mL
Source text: (§1) The strain included in the study was Klebsiella pneumoniae ATCC BAA-2146 (Himedia®, India) with presence of New Delhi metallo-β-lactamase (NDM-1) gene. The quality control reference strains Escherichia coli ATCC 25922 and Pseudomonas aeruginosa ATCC 27853 were procured from Himedia®, India.
(§2) The fold modulation activity of test compounds, in combination with Imipenem or Meropenem, was checked against Klebsiella pneumoniae ATCC BAA-2146 strain by the broth-microdilution checkerboard synergy assay. The plates contained 5×10^5 CFU/mL bacterial inocula and 2-fold serial dilutions of the antibiotics (128-2 μg/mL) as well as test compounds (32-4 μg/mL) in a total volume of 200 μL of CA-MHB. Dimethyl sulfoxide (DMSO, ≤2.5%) was included as vehicle control. Following 16-18 h of incubation at 37° C., the MICs of antibiotics as well as drug combinations were visually inspected.

[2] = system: Klebsiella pneumoniae ATCC BAA-2146; experiment: Checkerboard synergy assay in combination with Meropenem; assay type: cell-based; settings: K. pneumoniae ATCC BAA-2146; for Fold reduction in meropenem MIC in the presence of compounds (μg/mL) 4: compound at 4 μg/mL; for Fold reduction in meropenem MIC in the presence of compounds (μg/mL) 8: compound at 8 μg/mL; for Fold reduction in meropenem MIC in the presence of compounds (μg/mL) 16: compound at 16 μg/mL; for Fold reduction in meropenem MIC in the presence of compounds (μg/mL) 32: compound at 32 μg/mL
Source text: as §1, §2

[3] = system: Klebsiella pneumoniae ATCC BAA-2146; experiment: Minimum inhibitory concentration (MIC), broth-microdilution (CLSI); assay type: cell-based; settings: ATCCBAA2146, compound alone, K. pneumoniae ATCC BAA-2146, read-out: Intrinsic MIC
Source text: as §1
MIC values were identified through broth-microdilution in sterilized 96-well polystyrene flat-bottom microtitre plates (Cole-Parmer®) according to the guideline of the Clinical and Laboratory Standards Institute (CLSI) (CLSI; Methods for dilution antimicrobial susceptibility tests for bacteria that grow aerobically; Clinical Laboratory Standards Institute, M07-A09, 2012). This method involves the use of BBL™ Cation-adjusted Mueller-Hinton II Broth (CA-MHB; BD) and the strain (Klebsiella pneumoniae ATCC BAA-2146) concentration was adjusted to 5×10^5 CFU/mL. After 16-18 h of incubation at various concentrations of Imipenem, Meropenem (Alfa Aesar), or test compounds at 37° C., MIC was defined as the lowest concentration of antibiotic or test compound with no visible growth.

[4] = target: NDM-1 (Klebsiella pneumoniae, UniProt C7C422); experiment: Enzyme activity: IC50 in fluorescence assay with cephalosporin substrate FC5; assay type: biochemical; settings: 50 pM NDM-1, 1.5 μM FC5, 10 min pre-incubation
Experimental: (§3) The Class B beta-lactamases activities were measured in the presence of the test inhibitors in a fluorescence assay against an in-house synthesized fluorescent cephalosporin substrate FC5 (Berkel, et. al. J. Med. Chem. 2013, 56(17), 6945). The enzymes (NDM-1, IMP-1) and the substrate were diluted in 20 mM HEPES, pH 7.4, supplemented with 300 mM NaCl and 10 μM ZnSO4. In the assay, the final concentration of enzyme was 50 pM, and 100 pM for NDM-1, and IMP-1 respectively, and the final concentration of FC5 was 1.5 μM for NDM-1 and 10 μM for IMP-1. The test inhibitors/compounds were dissolved in dimethylsulfoxide (DMSO) and diluted in the assay with assay buffer (20 mM HEPES, pH 7.4, supplemented with 5% DMSO, 300 mM NaCl and 10 μM ZnSO4), resulting in a final concentration range of 0.008 μM to 25 μM. The assays were performed in 96-well microplate (flat bottom, black). The test inhibitors were incubated with the MBL enzyme for 10 min at room temperature, followed by addition the substrate and the fluorescence was recorded immediately (λex 380 nm, λem 460 nm) on a microplate reader. Using the initial velocity data plotted against the inhibitor concentration, the half-maximal inhibitory concentrations were calculated by an IC50 curve-fitting model in GraphPad Prism 9 software.

[5] = target: IMP-1 (Serratia marcescens, UniProt P52699); experiment: as above; assay type: biochemical; settings: 100 pM IMP-1, 10 μM FC5, 10 min pre-incubation
Experimental: as §3

Chain of NDM-1 (C7C422 29-270, looked up): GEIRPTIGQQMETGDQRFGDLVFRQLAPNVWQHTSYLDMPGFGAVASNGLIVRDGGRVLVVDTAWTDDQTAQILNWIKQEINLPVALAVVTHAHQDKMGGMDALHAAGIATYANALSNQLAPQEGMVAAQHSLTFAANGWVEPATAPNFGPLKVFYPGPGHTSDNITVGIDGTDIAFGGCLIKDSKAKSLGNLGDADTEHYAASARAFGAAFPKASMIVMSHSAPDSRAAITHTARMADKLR
Chain of IMP-1 (P52699 19-246, looked up, species assumed): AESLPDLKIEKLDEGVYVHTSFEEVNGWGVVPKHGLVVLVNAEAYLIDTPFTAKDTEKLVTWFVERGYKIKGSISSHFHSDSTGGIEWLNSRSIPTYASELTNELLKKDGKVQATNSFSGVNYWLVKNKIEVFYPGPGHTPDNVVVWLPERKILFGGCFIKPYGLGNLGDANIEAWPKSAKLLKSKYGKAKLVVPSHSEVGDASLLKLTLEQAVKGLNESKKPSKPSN

| SMILES | Fold reduction in Imipenem MIC in the presence of compounds (μg/mL) 4 [1] [fold] | Fold reduction in Imipenem MIC in the presence of compounds (μg/mL) 8 [1] [fold] | Fold reduction in Imipenem MIC in the presence of compounds (μg/mL) 16 [1] [fold] | Fold reduction in Imipenem MIC in the presence of compounds (μg/mL) 32 [1] [fold] | Fold reduction in meropenem MIC in the presence of compounds (μg/mL) 4 [2] [fold] | Fold reduction in meropenem MIC in the presence of compounds (μg/mL) 8 [2] [fold] | Fold reduction in meropenem MIC in the presence of compounds (μg/mL) 16 [2] [fold] | Fold reduction in meropenem MIC in the presence of compounds (μg/mL) 32 [2] [fold] | MIC ([3]; Imipenem series) [µg/mL] | MIC ([3]; meropenem series) [µg/mL] | IC50 [4] [µM] | IC50 [5] [µM] |
| --- | --- | --- | --- | --- | --- | --- | --- | --- | --- | --- | --- | --- |
| COc1ccc(F)cc1-c1c(C(=O)O)[nH]c2c1CCc1ccccc1-2 [Example 34, 3-(5-Fluoro-2-methoxyphenyl)-4,5-dihydro-1H-benzo[g]indole-2-carboxylic Acid] | 4 | 8 | 8 | 16 | 4 | 4 | 4 | 16 | > 128 | > 128 | 0.103 | 0.096 |
| COc1ccccc1-c1c(C(=O)O)[nH]c2c1CCc1ccccc1-2 [Example 35, 3-(2-methoxyphenyl)-4,5-dihydro-1H-benzo[g]indole-2-carboxylic Acid] | 2 | 4 | 4 | 8 | 4 | 4 | 8 | 8 | > 128 | > 128 | 0.248 | 1.81 |
| COc1ccc(-c2c(C(=O)O)[nH]c3c2CCc2ccccc2-3)cc1 [Example 36, 3-(4-Methoxyphenyl)-4,5-dihydro-1H-benzo[g]indole-2-carboxylic Acid] | 2 | 2 | 2 | 4 | 2 | 2 | 4 | 4 | > 64 | > 64 | 2.65 | 18.3 |
| O=C(O)c1[nH]c2c(c1-c1ccc(F)c(F)c1)CCc1ccccc1-2 [Example 37, 3-(3,4-Difluorophenyl)-4,5-dihydro-1H-benzo[g]indole-2-carboxylic Acid] | 2 | 2 | 4 | 4 | 4 | 4 | 4 | 4 | > 64 | > 64 | 0.342 | 3.86 |
| COc1ccc(Cl)cc1-c1c(C(=O)O)[nH]c2c1CCc1ccccc1-2 [Example 38, 3-(5-Chloro-2-methoxyphenyl)-4,5-dihydro-1H-benzo[g]indole-2-carboxylic Acid] | 4 | 4 | 8 | 8 | 4 | 4 | 4 | 8 | > 128 | > 128 | 0.026 | 0.026 |
| CC(C)(C)c1ccc(-c2c(C(=O)O)[nH]c3c2CCc2ccccc2-3)cc1 [Example 39, 3-(4-(tert-Butyl)phenyl)-4,5-dihydro-1H-benzo[g]indole-2-carboxylic Acid] | 2 | 4 | 4 | 4 | 4 | 4 | 4 | 4 | > 64 | > 64 | 0.591 | 72.1 |
| O=C(O)c1[nH]c2c(c1-c1ccccc1F)CCc1ccccc1-2 [Example 41, 3-(2-Fluorophenyl)-4,5-dihydro-1H-benzo[g]indole-2-carboxylic Acid] | 4 | 4 | 8 | 8 | 4 | 4 | 4 | 8 | > 128 | > 128 | 0.256 | 1.34 |
| O=C(O)c1[nH]c2c(c1-c1cccc(F)c1)CCc1ccccc1-2 [Example 42, 3-(3-Fluorophenyl)-4,5-dihydro-1H-benzo[g]indole-2-carboxylic Acid] | 4 | 4 | 8 | 8 | 4 | 4 | 4 | 8 | > 128 | > 128 | 0.079 | 1.15 |
